Measured values taken from patent US20230085307A1, “PYRIDAZINONE COMPOUND AND HERBICIDE” (NISSAN CHEMICAL CORPORATION, priority 2019, published 2023).

System: windgrass
Experiment: Test Example 5: herbicidal effect by foliage application, plastic box (Table 20, symbol L)
Format: in vivo, windgrass (Apera spica-venti)
Details: amount of applied herbicide 320 g/ha; foliage application after 14-day growth; evaluated three weeks after application
How it was run: (§1)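 Sow seeds spot-wise in sterilized diluvial soil; cover with ~1.5 cm soil. Grow 14 days in greenhouse, 25° C. to 30° C. Spray foliage with emulsion diluted to predetermined amount. Rate effect after 3 weeks.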

Compound | Herbicidal effect by foliage application, L: windgrass
COc1ccc(-c2sc3c(C)cccc3c2-c2c(O)c(C)nn(C)c2=O)cc1 [4-110] | 4 (Herbicidal rate of 70% or more and less than 90%)
CCSc1ccc(-c2sc3c(C)cccc3c2-c2c(O)c(C)nn(C)c2=O)cc1 [4-124] | 5 (Herbicidal rate of 90% or more (almost completely withered))

System: lambsquarters
Experiment: Test Example 4: herbicidal effect by soil treatment (Table 19, symbol O)
Format: in vivo, lambsquarters (Chenopodium album)
Details: amount of applied herbicide 320 g/ha
How it was run: (§2)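 Soil-surface application: an emulsion agent diluted with water to the predetermined dose is sprayed uniformly over seeds lying under roughly 1.5 cm of sterilized diluvial soil. Boxes stay in a greenhouse at 25° C. to 30° C. Three weeks later, each species is graded on previously defined criteria.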

Compound | Herbicidal effect by soil treatment, O: lambsquarters
COc1ccc(-c2sc3c(C)cccc3c2-c2c(O)c(C)nn(C)c2=O)cc1 [4-110] | 5 (Herbicidal rate of 90% or more (almost completely withered))
CCSc1ccc(-c2sc3c(C)cccc3c2-c2c(O)c(C)nn(C)c2=O)cc1 [4-124] | 5 (Herbicidal rate of 90% or more (almost completely withered))

System: Italian ryegrass
Experiment: Test Example 4: herbicidal effect by soil treatment (Table 19, symbol K)
Format: in vivo, Italian ryegrass (Lolium multiflorum)
Details: amount of applied herbicide 320 g/ha
How it was run: as §2

Compound | Herbicidal effect by soil treatment, K: Italian ryegrass
COc1ccc(-c2sc3c(C)cccc3c2-c2c(O)c(C)nn(C)c2=O)cc1 [4-110] | 5 (Herbicidal rate of 90% or more (almost completely withered))
CCSc1ccc(-c2sc3c(C)cccc3c2-c2c(O)c(C)nn(C)c2=O)cc1 [4-124] | 4 (Herbicidal rate of 70% or more and less than 90%)

System: barnyard grass
Experiment: Test Example 5: herbicidal effect by foliage application, plastic box (Table 20, symbol H)
Format: in vivo, barnyard grass (Echinochloa crus-galli)
Details: amount of applied herbicide 320 g/ha; foliage application after 14-day growth; evaluated three weeks after application
How it was run: as §1

Compound | Herbicidal effect by foliage application, H: barnyard grass
COc1ccc(-c2sc3c(C)cccc3c2-c2c(O)c(C)nn(C)c2=O)cc1 [4-110] | 2 (Herbicidal rate of 20% or more and less than 40%)
CCSc1ccc(-c2sc3c(C)cccc3c2-c2c(O)c(C)nn(C)c2=O)cc1 [4-124] | 5 (Herbicidal rate of 90% or more (almost completely withered))

System: rice flat sedge
Experiment: Test Example 3: herbicidal effect by foliage application, Wagner pot (Table 18, symbol E)
Format: in vivo, rice flat sedge (Cyperus iria)
Details: 320 g/ha
How it was run: (§3)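 Plants were sown in alluvial soil held under 0.1–0.5 cm standing water and grown 14 days in a greenhouse at 25–30 °C. An emulsifiable formulation, water-diluted to the set dose, was then sprayed onto the foliage, and effects were scored three weeks later using previously defined criteria.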

Compound | herbicidal effect on rice flat sedge (E)
COc1ccc(-c2sc3c(C)cccc3c2-c2c(O)c(C)nn(C)c2=O)cc1 [4-110] | 5 (Herbicidal rate of 90% or more (almost completely withered))
CCSc1ccc(-c2sc3c(C)cccc3c2-c2c(O)c(C)nn(C)c2=O)cc1 [4-124] | 5 (Herbicidal rate of 90% or more (almost completely withered))

System: chickweed
Experiment: Test Example 5: herbicidal effect by foliage application, plastic box (Table 20, symbol P)
Format: in vivo, common chickweed (Stellaria media)
Details: amount of applied herbicide 320 g/ha; foliage application after 14-day growth; evaluated three weeks after application
How it was run: as §1

Compound | Herbicidal effect by foliage application, P: chickweed
COc1ccc(-c2sc3c(C)cccc3c2-c2c(O)c(C)nn(C)c2=O)cc1 [4-110] | 5 (Herbicidal rate of 90% or more (almost completely withered))
CCSc1ccc(-c2sc3c(C)cccc3c2-c2c(O)c(C)nn(C)c2=O)cc1 [4-124] | 5 (Herbicidal rate of 90% or more (almost completely withered))

System: Chinese sprangletop
Experiment: Test Example 3: herbicidal effect by foliage application, Wagner pot (Table 18, symbol D)
Format: in vivo, chinese sprangletop (Leptochloa chinensis)
Details: 320 g/ha
How it was run: as §3

Compound | herbicidal effect on Chinese sprangletop (D)
COc1ccc(-c2sc3c(C)cccc3c2-c2c(O)c(C)nn(C)c2=O)cc1 [4-110] | 0 (Herbicidal rate of 5% or less (almost no effect))
CCSc1ccc(-c2sc3c(C)cccc3c2-c2c(O)c(C)nn(C)c2=O)cc1 [4-124] | 3 (Herbicidal rate of 40% or more and less than 70%)

System: lambsquarters
Experiment: Test Example 5: herbicidal effect by foliage application, plastic box (Table 20, symbol O)
Format: in vivo, lambsquarters (Chenopodium album)
Details: amount of applied herbicide 320 g/ha; foliage application after 14-day growth; evaluated three weeks after application
How it was run: as §1

Compound | Herbicidal effect by foliage application, O: lambsquarters
COc1ccc(-c2sc3c(C)cccc3c2-c2c(O)c(C)nn(C)c2=O)cc1 [4-110] | 5 (Herbicidal rate of 90% or more (almost completely withered))
CCSc1ccc(-c2sc3c(C)cccc3c2-c2c(O)c(C)nn(C)c2=O)cc1 [4-124] | 5 (Herbicidal rate of 90% or more (almost completely withered))

System: green foxtail
Experiment: Test Example 4: herbicidal effect by soil treatment (Table 19, symbol G)
Format: in vivo, green foxtail (Setaria viridis)
Details: amount of applied herbicide 320 g/ha
How it was run: as §2

Compound | Herbicidal effect by soil treatment, G: green foxtail
COc1ccc(-c2sc3c(C)cccc3c2-c2c(O)c(C)nn(C)c2=O)cc1 [4-110] | 0 (Herbicidal rate of 5% or less (almost no effect))
CCSc1ccc(-c2sc3c(C)cccc3c2-c2c(O)c(C)nn(C)c2=O)cc1 [4-124] | 5 (Herbicidal rate of 90% or more (almost completely withered))

System: Japanese bulrush
Experiment: Test Example 2: herbicidal activity, application during weed generation under submerged conditions (Table 17, symbol B)
Format: in vivo, Japanese bulrush (Schoenoplectus juncoides)
Details: AAH 320 g/ha; application during weed generation, submerged conditions
How it was run: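 3-wk visual-criteria score after one water-surface dose. Emulsion formulation, water-diluted to set rate; applied at 1–2 leaf stage; alluvial soil, 4 cm standing water; seeds co-sown; greenhouse 25–30° C.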

Compound | herbicidal effect rating, B: Japanese bulrush
COc1ccc(-c2sc3c(C)cccc3c2-c2c(O)c(C)nn(C)c2=O)cc1 [4-110] | 3 (Herbicidal rate of 40% or more and less than 70%)
CCSc1ccc(-c2sc3c(C)cccc3c2-c2c(O)c(C)nn(C)c2=O)cc1 [4-124] | 0 (Herbicidal rate of 5% or less (almost no effect))

System: blackgrass
Experiment: Test Example 5: herbicidal effect by foliage application, plastic box (Table 20, symbol J)
Format: in vivo, blackgrass (Alopecurus myosuroides)
Details: amount of applied herbicide 320 g/ha; foliage application after 14-day growth; evaluated three weeks after application
How it was run: as §1

Compound | Herbicidal effect by foliage application, J: blackgrass
COc1ccc(-c2sc3c(C)cccc3c2-c2c(O)c(C)nn(C)c2=O)cc1 [4-110] | 4 (Herbicidal rate of 70% or more and less than 90%)
CCSc1ccc(-c2sc3c(C)cccc3c2-c2c(O)c(C)nn(C)c2=O)cc1 [4-124] | 5 (Herbicidal rate of 90% or more (almost completely withered))

System: wild oat
Experiment: Test Example 5: herbicidal effect by foliage application, plastic box (Table 20, symbol I)
Format: in vivo, wild oat (Avena fatua)
Details: amount of applied herbicide 320 g/ha; foliage application after 14-day growth; evaluated three weeks after application
How it was run: as §1

Compound | Herbicidal effect by foliage application, I: wild oat
COc1ccc(-c2sc3c(C)cccc3c2-c2c(O)c(C)nn(C)c2=O)cc1 [4-110] | 0 (Herbicidal rate of 5% or less (almost no effect))
CCSc1ccc(-c2sc3c(C)cccc3c2-c2c(O)c(C)nn(C)c2=O)cc1 [4-124] | 4 (Herbicidal rate of 70% or more and less than 90%)

System: barnyard grass
Experiment: Test Example 4: herbicidal effect by soil treatment (Table 19, symbol H)
Format: in vivo, barnyard grass (Echinochloa crus-galli)
Details: amount of applied herbicide 320 g/ha
How it was run: as §2

Compound | Herbicidal effect by soil treatment, H: barnyard grass
COc1ccc(-c2sc3c(C)cccc3c2-c2c(O)c(C)nn(C)c2=O)cc1 [4-110] | 0 (Herbicidal rate of 5% or less (almost no effect))
CCSc1ccc(-c2sc3c(C)cccc3c2-c2c(O)c(C)nn(C)c2=O)cc1 [4-124] | 3 (Herbicidal rate of 40% or more and less than 70%)

System: Italian ryegrass
Experiment: Test Example 5: herbicidal effect by foliage application, plastic box (Table 20, symbol K)
Format: in vivo, Italian ryegrass (Lolium multiflorum)
Details: amount of applied herbicide 320 g/ha; foliage application after 14-day growth; evaluated three weeks after application
How it was run: as §1

Compound | Herbicidal effect by foliage application, K: Italian ryegrass
COc1ccc(-c2sc3c(C)cccc3c2-c2c(O)c(C)nn(C)c2=O)cc1 [4-110] | 5 (Herbicidal rate of 90% or more (almost completely withered))
CCSc1ccc(-c2sc3c(C)cccc3c2-c2c(O)c(C)nn(C)c2=O)cc1 [4-124] | 5 (Herbicidal rate of 90% or more (almost completely withered))

System: blackgrass
Experiment: Test Example 4: herbicidal effect by soil treatment (Table 19, symbol J)
Format: in vivo, blackgrass (Alopecurus myosuroides)
Details: amount of applied herbicide 320 g/ha
How it was run: as §2

Compound | Herbicidal effect by soil treatment, J: blackgrass
COc1ccc(-c2sc3c(C)cccc3c2-c2c(O)c(C)nn(C)c2=O)cc1 [4-110] | 0 (Herbicidal rate of 5% or less (almost no effect))
CCSc1ccc(-c2sc3c(C)cccc3c2-c2c(O)c(C)nn(C)c2=O)cc1 [4-124] | 2 (Herbicidal rate of 20% or more and less than 40%)

System: velvetleaf
Experiment: Test Example 5: herbicidal effect by foliage application, plastic box (Table 20, symbol M)
Format: in vivo, velvetleaf (Abutilon theophrasti)
Details: amount of applied herbicide 320 g/ha; foliage application after 14-day growth; evaluated three weeks after application
How it was run: as §1

Compound | Herbicidal effect by foliage application, M: velvetleaf
COc1ccc(-c2sc3c(C)cccc3c2-c2c(O)c(C)nn(C)c2=O)cc1 [4-110] | 5 (Herbicidal rate of 90% or more (almost completely withered))
CCSc1ccc(-c2sc3c(C)cccc3c2-c2c(O)c(C)nn(C)c2=O)cc1 [4-124] | 5 (Herbicidal rate of 90% or more (almost completely withered))

System: persian speedwell
Experiment: Test Example 5: herbicidal effect by foliage application, plastic box (Table 20, symbol R)
Format: in vivo, Persian speedwell (Veronica persica)
Details: amount of applied herbicide 320 g/ha; foliage application after 14-day growth; evaluated three weeks after application
How it was run: as §1

Compound | Herbicidal effect by foliage application, R: persian speedwell
COc1ccc(-c2sc3c(C)cccc3c2-c2c(O)c(C)nn(C)c2=O)cc1 [4-110] | 5 (Herbicidal rate of 90% or more (almost completely withered))
CCSc1ccc(-c2sc3c(C)cccc3c2-c2c(O)c(C)nn(C)c2=O)cc1 [4-124] | 5 (Herbicidal rate of 90% or more (almost completely withered))
